Key:
[1] = molecular target: Mu-type opioid receptor (Rattus norvegicus) (UniProt P33535)
[2] = molecular target: Substance-P receptor (Cavia porcellus) (UniProt P30547); details: Hartley, Ileum
Sequence of Substance-P receptor (Cavia porcellus) (P30547 whole entry): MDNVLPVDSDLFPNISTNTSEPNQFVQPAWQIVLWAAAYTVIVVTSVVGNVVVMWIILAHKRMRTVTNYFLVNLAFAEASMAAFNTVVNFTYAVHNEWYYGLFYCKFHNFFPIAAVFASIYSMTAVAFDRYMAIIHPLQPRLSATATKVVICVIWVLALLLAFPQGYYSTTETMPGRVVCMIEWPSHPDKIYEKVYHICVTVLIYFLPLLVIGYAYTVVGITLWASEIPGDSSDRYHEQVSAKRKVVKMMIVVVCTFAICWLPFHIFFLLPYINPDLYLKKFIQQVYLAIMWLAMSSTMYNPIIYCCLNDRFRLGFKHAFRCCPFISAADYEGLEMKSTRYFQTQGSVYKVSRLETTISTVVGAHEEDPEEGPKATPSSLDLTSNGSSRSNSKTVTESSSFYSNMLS

Sequence of Mu-type opioid receptor (Rattus norvegicus) (P33535 whole entry): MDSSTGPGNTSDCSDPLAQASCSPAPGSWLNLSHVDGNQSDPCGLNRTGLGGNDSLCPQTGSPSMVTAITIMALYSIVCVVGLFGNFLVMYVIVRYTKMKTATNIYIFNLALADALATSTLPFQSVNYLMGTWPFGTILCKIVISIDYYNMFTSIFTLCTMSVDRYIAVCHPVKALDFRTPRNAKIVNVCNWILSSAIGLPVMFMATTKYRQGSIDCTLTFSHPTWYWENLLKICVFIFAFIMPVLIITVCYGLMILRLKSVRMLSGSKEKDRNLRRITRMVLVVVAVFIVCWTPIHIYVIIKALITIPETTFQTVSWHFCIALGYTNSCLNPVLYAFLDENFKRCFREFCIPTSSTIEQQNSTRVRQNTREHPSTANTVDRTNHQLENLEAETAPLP

Molecule `CSCC[C@H](NC(=O)[C@H](Cc1ccccc1)NC(=O)CNC(=O)[C@@H](C)NC(=O)[C@@H](N)Cc1ccc(O)cc1)C(=O)N1CCC[C@H]1C(=O)N[C@@H](CC(C)C)C(=O)N[C@@H](Cc1c[nH]c2ccccc12)C(=O)NCc1ccccc1` has a pEC50 [1] of 7.7 nM and a Ke [2] of 9.9 nM.

`CSCC[C@H](NC(=O)[C@H](Cc1ccccc1)NC(=O)CNC(=O)[C@@H](C)NC(=O)[C@@H](N)Cc1ccc(O)cc1)C(=O)N1CCC[C@H]1C(=O)N[C@@H](CC(C)C)C(=O)N[C@@H](Cc1c[nH]c2ccccc12)C(=O)OCc1cc(C(F)(F)F)cc(C(F)(F)F)c1` showed a pEC50 [1] of 7.5 nM.

`CSCC[C@H](NC(=O)[C@H](Cc1ccccc1)NC(=O)CNC(=O)[C@@H](C)NC(=O)[C@@H](N)Cc1ccc(O)cc1)C(=O)N1CCC[C@H]1C(=O)N[C@@H](CC(C)C)C(=O)N[C@@H](Cc1c[nH]c2ccccc12)C(=O)NCc1cc(C(F)(F)F)cc(C(F)(F)F)c1` showed a pEC50 [1] of 8.2 nM and a Ke [2] of 10 nM.

— ChEMBL document CHEMBL1140170, “The importance of micelle-bound states for the bioactivities of bifunctional peptide derivatives for delta/mu opioid receptor agonists and neurokinin 1 receptor antagonists” (J Med Chem, 2008)
